Results reported in patent US7776851B2, “Use of neurokinin antagonists in the treatment of urinary incontinence” (Novartis AG, priority 2003, dated 2010).

Columns and labels:
[1] = tested on: longitudinal muscle-nerve preparations from the guinea-pig urinary bladder; experiment: Substance P-stimulated detrusor contractility, organ bath; type: cell-based
Protocol: Detrusor contractility is tested in longitudinal muscle-nerve preparations from the guinea-pig urinary bladder (Mackenzie and Burnstock 1984). In organ bath studies, isometric contractile responses are evoked by cumulative application of substance P (0.1 nM up to 30 μM). Substance P stimulates contractions in a concentration-dependent fashion (pD2=6.68±0.23; mean±SEM; n=5 preparations).

conscious guinea pigs = experiment: 5-HTP-stimulated micturition (overactive urinary bladder responses) in conscious guinea pigs; type: in vivo, guinea pig; conditions: for decrease of micturition volume / decrease of voiding frequency: one hour prior to 5-HTP (10 mg/kg s.c.), assessed over 17 hours, mean±SEM
Protocol: In conscious guinea pigs, an experimental paradigm is applied to stimulate micturition through subcutaneous administration of 5-hydroxytryptophan (5-HTP, 10 mg/kg). The measurement of both voiding frequency and micturition volume is used to quantify the effects of the compound of formula II (Belis, et al 1996). Vehicle or the compound of formula II (1 and 3 mg/kg) are dosed orally one hour prior to the stimulation with 5-HTP.
The effects of vehicle and the compound of formula II are assessed over 17 hours in 4 to 8 animals. […] The compound of formula II attenuates the overactive bladder responses upon stimulation with 5-HTP.
The effects are statistically significant at both doses tested (p<0.05; RM ANOVA, post-hoc Tukey test). See also FIG. 1.

[2] = 5-HTP 10 mg/kg subcutaneous, over 17 hours

CN(C(=O)c1cc(C(F)(F)F)cc(C(F)(F)F)c1)[C@@H](/C=C/C(=O)N[C@@H]1CCCCNC1=O)Cc1ccc(Cl)c(Cl)c1 [compound of formula II, (4R)-4-[N′-methyl-N′-(3,5-bistrifluoromethylbenzoyl)amino]-4-(3,4-dichlorobenzyl)-but-2-enoic acid N-[(R)-epsilon-caprolactam-3-yl]-amide]
Schild plot slope ([1]; 10 nM, 100 nM and 1000 nM vs substance P): −0.98 | pA2 (Schild plot analysis), inhibition of substance P-evoked contractile responses ([1]; 10 nM, 100 nM and 1000 nM, competitive, substance P 0.1 nM up to 30 μM cumulative): 7.97 | decrease of micturition volume (conscious guinea pigs; 1 mg/kg p.o.): 32.9%±4.5% | decrease of voiding frequency (conscious guinea pigs; 1 mg/kg p.o.): 45.4%±7.1% | decrease of micturition volume (conscious guinea pigs; 3 mg/kg p.o.): 36.6%±6.2% | decrease of voiding frequency (conscious guinea pigs; 3 mg/kg p.o.): 26.2%±7.1%

N[C@@H](Cc1c[nH]c2ccc(O)cc12)C(=O)O [S-HTP, 5-hydroxytryptophan, reference compound]
increase of micturition volume as compared to control animals (conscious guinea pigs; [2]): 4.5 fold | increase of voiding frequency as compared to control animals (conscious guinea pigs; [2]): 2.7 fold

substance P [reference compound]
pD2, stimulation of isometric contractions ([1]; cumulative application 0.1 nM up to 30 μM, mean±SEM, n=5 preparations): 6.68±0.23
